Experiment [1] deals with TNFα production in LPS-stimulated human monocytes. The experiment is described as follows: Cot Monocyte TNFα Cell Based Assay. The following applies: Homo sapiens, Monocyte, TNFα in LPS-stimulated human monocytes; read-out: EC50 TNF. The method in brief: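 Percent-of-control values derive from TR-FRET ratios of TNFα in spun-down media, referenced to unstimulated and LPS-stimulated wells. Exposure: 1 h compound preincubation, then 50 pg/ml LPS for 4 h, both at 37 °C, with 0.5% final DMSO.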

Experiment [2] concerns the target T1, human Cot catalytic domain (30-397 amino acids) (Homo sapiens, UniProt P41279).
T1 construct: Purified recombinant human Cot catalytic domain (30-397 amino acids) was purchased from Cama Biosciences; purchased Cama Biosciences (so in the source)
Briefly: High Throughput Cot Biochemical Assay (KinEASE TR-FRET). The following applies: Cot KinEASE TR-FRET (HTRF) biochemical assay, 400 μM ATP; read-out: IC50 HTRF. In outline:
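Phosphorylation of 1 μM XL665-STK3 peptide by 5 nM Cot catalytic domain was measured by time-resolved FRET using a europium […] antibody. ATP was 400 μM; buffer was 10 mM MOPS pH 7.0 with Mg2+ and DTT.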
Background: In TR-FRET formats the signal depends on donor and acceptor labels being close together.

Each structure is given as a SMILES string.

T1 sequence (P41279 30-397): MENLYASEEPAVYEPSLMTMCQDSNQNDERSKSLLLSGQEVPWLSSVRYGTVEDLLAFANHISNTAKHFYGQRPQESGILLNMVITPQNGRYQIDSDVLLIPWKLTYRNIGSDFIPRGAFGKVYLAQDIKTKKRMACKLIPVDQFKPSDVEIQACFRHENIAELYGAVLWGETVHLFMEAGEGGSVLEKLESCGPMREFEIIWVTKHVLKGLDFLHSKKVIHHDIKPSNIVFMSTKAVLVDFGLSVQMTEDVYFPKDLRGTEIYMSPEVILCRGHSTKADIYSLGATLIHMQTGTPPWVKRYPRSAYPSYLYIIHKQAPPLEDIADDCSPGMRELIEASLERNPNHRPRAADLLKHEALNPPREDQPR

For orientation: EC50 means the concentration that produces a half-maximal response. By IC50 is commonly meant the concentration that gives 50% inhibition. As to `[2H][C@](Nc1cc(F)c2ncc(C#N)c(N[C@H](CCC#N)c3ccccc3)c2c1)(c1cccc(C#N)c1)c1cn(C2CC2)nn1` [Example 164, 4-(((R)-3-cyano-1-phenylpropyl)amino)-6-(((S)-(3-cyanophenyl)(1-cyclopropyl-1H-1,2,3-triazol-4-yl)methyl-d)amino)-8-fluoroquinoline-3-carbonitrile], in experiment [1], the concentration giving a half-maximal response (EC50) stood at 15 nM. Besides, the IC50 in experiment [2] is 1 nM.
Consider `[2H][C@](Nc1cc(F)c2ncc(C#N)c(N[C@@H](CCC#N)c3ccccc3)c2c1)(c1cccc(C#N)c1)c1cn(C2CC2)nn1` [Example 165, 4-(((S)-3-cyano-1-phenylpropyl)amino)-6-(((S)-(3-cyanophenyl) (1-cyclopropyl-1H-1,2,3-triazol-4-yl)methyl-d)amino)-8-fluoroquinoline-3-carbonitrile], for which, in experiment [1], the 50% effective concentration (EC50) was 6270 nM. In addition, the IC50 in experiment [2] stood at 2090 nM.
Taken in the same sequence, the figures for `[2H][C@](Nc1cc(Cl)c2ncc(C#N)c(N[C@H](CCN3CCCCC3)c3ccccc3)c2c1)(c1ccc(F)cc1)c1cn(C2CC2)nn1` [Example 166, 8-chloro-6-(((1-cyclopropyl-1H-1,2,3-triazol-4-yl)(4-fluorophenyl)methyl-d)amino)-4-(((R)-1-phenyl-3-(piperidin-1-yl)propyl)amino)quinoline-3-carbonitrile] were 979 nM and 61 nM.
For `[2H][C@](Nc1cc(Cl)c2ncc(C#N)c(N[C@H](CCN3CCCC3)c3ccccc3)c2c1)(c1ccc(F)cc1)c1cn(C2CC2)nn1` [Example 167, 8-chloro-6-(((1-cyclopropyl-1H-1,2,3-triazol-4-yl) (4-fluorophenyl)methyl-d)amino)-4-(((R)-1-phenyl-3-(pyrrolidin-1-yl)propyl)amino) quinoline-3-carbonitrile], the concentration giving a half-maximal response (EC50) in experiment [1] is > 10000 nM. Moreover, the concentration for half-maximal inhibition (IC50) in experiment [2] is 171 nM.
Regarding `[2H][C@](Nc1cc(-c2cn[nH]c2)c2ncc(C#N)c(NCC(C)(C)C)c2c1)(c1ccc(F)cc1)c1cn(C2CC2)nn1` [Example 168, (S)-6-(((1-cyclopropyl-1H-1,2,3-triazol-4-yl)(4-fluorophenyl)methyl-d)amino)-4-(neopentylamino)-8-(1H-pyrazol-4-yl)quinoline-3-carbonitrile], the EC50 in experiment [1] was 9570 nM. For the same molecule, the IC50 in experiment [2] turned out to be 2070 nM.
For `[2H][C@](Nc1cc(-c2ccc(NC(C)=O)cc2)c2ncc(C#N)c(NCC(C)(C)C)c2c1)(c1ccc(F)cc1)c1cn(C2CC2)nn1` [Example 169, (S)-N-(4-(3-cyano-6-(((1-cyclopropyl-1H-1,2,3-triazol-4-yl)(4-fluorophenyl)methyl-d)amino)-4-(neopentylamino)quinolin-8-yl)phenyl)acetamide] the same measures were 2910 nM and 543 nM.
Taken in the same sequence, the figures for `[2H][C@](Nc1cc(-c2cccnc2)c2ncc(C#N)c(NCC(C)(C)C)c2c1)(c1ccc(F)cc1)c1cn(C2CC2)nn1` [Example 170, (S)-6-(((1-cyclopropyl-1H-1,2,3-triazol-4-yl)(4-fluorophenyl)methyl-d)amino)-4-(neopentylamino)-8-(pyridin-3-yl)quinoline-3-carbonitrile] were 562 nM and 48 nM.
For `[2H][C@](Nc1cc(-c2ccccc2)c2ncc(C#N)c(NCC(C)(C)C)c2c1)(c1ccc(F)cc1)c1cn(C2CC2)nn1` [Example 171, (S)-6-(((1-cyclopropyl-1H-1,2,3-triazol-4-yl)(4-fluorophenyl)methyl-d)amino)-4-(neopentylamino)-8-phenylquinoline-3-carbonitrile] the same measures were > 10000 nM and 9530 nM.
Regarding `[2H][C@](Nc1cc(OC)c2ncc(C#N)c(NCC(C)(C)C)c2c1)(c1ccc(F)cc1)c1cn(C2CC2)nn1` [Example 172, (S)-6-(((1-cyclopropyl-1H-1,2,3-triazol-4-yl)(4-fluorophenyl)methyl-d)amino)-8-methoxy-4-(neopentylamino) quinoline-3-carbonitrile], in experiment [1], the EC50 stood at 1640 nM. Also, the IC50 in experiment [2] came to 139 nM.
Consider `[2H][C@](Nc1cc(Cl)c2ncc(C#N)c(NC(C)(C)CO)c2c1)(c1ccc(F)cc1)c1cn(C2CC2)nn1` [Example 173, (S)-8-chloro-6-(((1-cyclopropyl-1H-1,2,3-triazol-4-yl)(4-fluorophenyl)methyl-d)amino)-4-((1-hydroxy-2-methylpropan-2-yl)amino)quinoline-3-carbonitrile], for which the EC50 in experiment [1] was determined as 1850 nM. For the same molecule, the half-inhibitory concentration (IC50) in experiment [2] came out at 140 nM.
For `[2H][C@](Nc1cc(Cl)c2ncc(C#N)c(NC(C)CCO)c2c1)(c1ccc(F)cc1)c1cn(C2CC2)nn1` (stereo partly shown) [Example 174] the same measures were > 10000 nM and 837 nM.
With `[2H][C@](Nc1cc(Cl)c2ncc(C#N)c(NC(CC)Cc3ccccc3)c2c1)(c1ccc(F)cc1)c1cn(C2CC2)nn1` (stereo partly drawn) [Example 175, 8-chloro-6-(((S)-(1-cyclopropyl-1H-1,2,3-triazol-4-yl)(4-fluorophenyl)methyl-d)amino)-4-((1-phenylbutan-2-yl)amino)quinoline-3-carbonitrile], the EC50 in experiment [1] was 5920 nM. In experiment [2], the IC50 amounted to 280 nM.
For `[2H][C@](Nc1cc(Cl)c2ncc(C#N)c(NCC3(C(F)(F)F)CC3)c2c1)(c1ccc(F)cc1)c1cn(C2CC2)nn1` [Example 176] the same measures were 809 nM and 83 nM.
Consider `[2H][C@](Nc1cc(Cl)c2ncc(C#N)c(NN3CCCCCC3)c2c1)(c1ccc(F)cc1)c1cn(C2CC2)nn1` [Example 177, (S)-4-(azepan-1-ylamino)-8-chloro-6-(((1-cyclopropyl-1H-1,2,3-triazol-4-yl)(4-fluorophenyl)methyl-d)amino)quinoline-3-carbonitrile], for which the concentration for a half-maximal effect (EC50) in experiment [1] was determined as 2460 nM. Further, the IC50 in experiment [2] is 370 nM.
Taken in the same sequence, the figures for `[2H][C@](Nc1cc(Cl)c2ncc(C#N)c(NN3CCCCC3)c2c1)(c1ccc(F)cc1)c1cn(C2CC2)nn1` [Example 178, (S)-8-chloro-6-(((1-cyclopropyl-1H-1,2,3-triazol-4-yl)(4-fluorophenyl)methyl-d)amino)-4-(piperidin-1-ylamino) quinoline-3-carbonitrile] were 674 nM and 110 nM.
On to `[2H][C@](Nc1cc(Cl)c2ncc(C#N)c(NN3CCCC3)c2c1)(c1ccc(F)cc1)c1cn(C2CC2)nn1` [Example 179, (S)-8-chloro-6-(((1-cyclopropyl-1H-1,2,3-triazol-4-yl)(4-fluorophenyl)methyl-d)amino)-4-(pyrrolidin-1-ylamino)quinoline-3-carbonitrile], for which, in experiment [1], the concentration giving a half-maximal response (EC50) was 2310 nM. Besides, the concentration for half-maximal inhibition (IC50) in experiment [2] turned out to be 193 nM.
For `[2H][C@](Nc1cc(Cl)c2ncc(C#N)c(NC(CC)c3cnc(F)c(F)c3)c2c1)(c1ccc(F)cc1)c1cn(C2CC2)nn1` (stereo partly drawn) [Example 180, 8-chloro-6-(((S)-(1-cyclopropyl-1H-1,2,3-triazol-4-yl)(4-fluorophenyl)methyl-d)amino)-4-((1-(5,6-difluoropyridin-3-yl)propyl)amino) quinoline-3-carbonitrile] the same measures were 3590 nM and 194 nM.
As for `[2H][C@](Nc1cc(Cl)c2ncc(C#N)c(N[C@H](COC)c3ccccc3)c2c1)(c1ccc(F)cc1)c1cn(C2CC2)nn1` [Example 181, 8-chloro-6-(((1-cyclopropyl-1H-1,2,3-triazol-4-yl)(4-fluorophenyl)methyl-d)amino)-4-(((S)-2-methoxy-1-phenylethyl)amino) quinoline-3-carbonitrile], the EC50 in experiment [1] was 348 nM. Besides, in experiment [2], the half-maximal inhibitory concentration (IC50) is 28 nM.
For `[2H][C@@](Nc1cc(C#N)c2ncc(C#N)c(Nc3ccc(F)c(Cl)c3)c2c1)(c1cn(C2CC2)nn1)c1ccccc1Cl` [Example 182, (S)-4-((3-chloro-4-fluorophenyl)amino)-6-(((2-chlorophenyl)(1-cyclopropyl-1H-1,2,3-triazol-4-yl)methyl-d)amino) quinoline-3,8-dicarbonitrile] the same measures were 136 nM and 4 nM.
For `[2H][C@@](Nc1cc(Cl)c2ncc(C#N)c(Nc3ccc(Cl)c(Cl)c3F)c2c1)(c1cn(C2CC2)nn1)c1ccccc1Cl` [Example 183, (S)-8-chloro-6-(((2-chlorophenyl)(1-cyclopropyl-1H-1,2,3-triazol-4-yl)methyl-d)amino)-4-((3,4-dichloro-2-fluorophenyl)amino)quinoline-3-carbonitrile] the same measures were 1410 nM and 89 nM.
For `[2H]C(Nc1cc(Cl)c2ncc(C#N)c(NCC(C)(C)C)c2c1)(c1ccc(F)cc1)c1nnnn1C` (stereo not shown) [Example 184, 8-chloro-6-(((4-fluorophenyl)(1-methyl-1H-tetrazol-5-yl)methyl-d)amino)-4-(neopentylamino) quinoline-3-carbonitrile] the same measures were 4380 nM and 154 nM.
For `[2H][C@](Nc1cc(Cl)c2ncc(C#N)c(N[C@@H](c3ccccc3)C3CC3)c2c1)(c1ccc(F)cc1)c1cn(C2CC2)nn1` [Example 185, 8-chloro-4-(((R)-cyclopropyl (phenyl)methyl)amino)-6-(((S)-(1-cyclopropyl-1H-1,2,3-triazol-4-yl)(4-fluorophenyl)methyl-d)amino)quinoline-3-carbonitrile], the EC50 in experiment [1] is 199 nM. The 50% inhibitory concentration (IC50) in experiment [2] was determined as 11 nM.
Regarding `[2H][C@](Nc1cc(Cl)c2ncc(C#N)c(N[C@@H](CO)C(C)(C)C)c2c1)(c1ccc(F)cc1)c1cn(C2CC2)nn1` [Example 186, 8-chloro-6-(((S)-(1-cyclopropyl-1H-1,2,3-triazol-4-yl)(4-fluorophenyl)methyl-d)amino)-4-(((R)-1-hydroxy-3,3-dimethylbutan-2-yl)amino)quinoline-3-carbonitrile], the 50% effective concentration (EC50) in experiment [1] is > 10000 nM. Moreover, the half-maximal inhibitory concentration (IC50) in experiment [2] is > 10000 nM.

These data come from US10316017B2, “COT modulators and methods of use thereof” (Gilead Sciences, Inc., priority 2015, dated 2019).
